{"source": "patent US20260262643A1", "about": "“HERBICIDAL BENZOXAZINES” (FMC CORPORATION, priority 2022, published 2026)", "key": {"[1]": {"tested_on": "blackgrass", "assay": "Test C preemergence", "format": "in vivo, Alopecurus myosuroides", "outline": "(§1)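 Visual injury score, 0–100 (100 = complete control), taken 10 days after treatment relative to untreated controls. Pre: directed spray onto soil over sown seeds. Post: foliar spray at one- to two-leaf stage, 2–10 cm. Solvent/surfactant formulation; loam–sand soil; greenhouse.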"}, "[2]": {"tested_on": "galium", "assay": "Test C postemergence", "format": "in vivo, Galium aparine", "details": "10 days, 0 to 100 scale (0 no effect, 100 complete control)", "outline": "as §1"}, "[3]": {"tested_on": "barnyardgrass", "assay": "Test C preemergence", "format": "in vivo, Echinochloa crusgalli", "outline": "as §1"}, "[4]": {"tested_on": "soybean", "assay": "Test C preemergence", "format": "in vivo, Glycine max", "outline": "as §1"}, "[5]": {"tested_on": "wheat", "assay": "Test C preemergence", "format": "in vivo, Triticum aestivum", "outline": "as §1"}, "[6]": {"tested_on": "ragweed", "assay": "Test C preemergence", "format": "in vivo, Ambrosia artemisiifolia", "outline": "as §1"}, "[7]": {"tested_on": "sedge, umbrella", "assay": "Test D flooded paddy test", "format": "in vivo, Cyperus difformis", "details": "250 g ai/ha, applied to paddy water, visual rating after 13 to 14 days, scale 0 to 100 (0 no effect, 100 complete control)", "outline": "(§2)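 Visual ratings from 0, meaning no effect, to 100, meaning complete control, were assigned against untreated controls 13 to 14 days after compounds were added to the floodwater of pots kept 3 cm deep, with plants at the 2-leaf stage.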"}, "[8]": {"tested_on": "rice", "assay": "Test D flooded paddy test", "format": "in vivo, Oryza sativa", "details": "250 g ai/ha, applied to paddy water, visual rating after 13 to 14 days, scale 0 to 100 (0 no effect, 100 complete control)", "outline": "as §2"}, "[9]": {"tested_on": "wheat", "assay": "Test C postemergence", "format": "in vivo, Triticum aestivum", "details": "10 days, 0 to 100 scale (0 no effect, 100 complete control)", "outline": "as §1"}, "[10]": {"tested_on": "blackgrass", "assay": "Test C postemergence", "format": "in vivo, Alopecurus myosuroides", "details": "10 days, 0 to 100 scale (0 no effect, 100 complete control)", "outline": "as §1"}, "[11]": {"tested_on": "pigweed, palmer", "assay": "Test C preemergence", "format": "in vivo, Amaranthus palmeri", "outline": "as §1"}, "[12]": {"tested_on": "ryegrass, Italian", "assay": "Test C preemergence", "format": "in vivo, Lolium multiflorum", "outline": "as §1"}, "[13]": {"tested_on": "ragweed", "assay": "Test C postemergence", "format": "in vivo, Ambrosia artemisiifolia", "details": "10 days, 0 to 100 scale (0 no effect, 100 complete control)", "outline": "as §1"}, "[14]": {"tested_on": "horseweed", "assay": "Test C postemergence", "format": "in vivo, Erigeron canadensis", "details": "10 days, 0 to 100 scale (0 no effect, 100 complete control)", "outline": "as §1"}, "[15]": {"tested_on": "ducksalad", "assay": "Test D flooded paddy test", "format": "in vivo, Heteranthera limosa", "details": "250 g ai/ha, applied to paddy water, visual rating after 13 to 14 days, scale 0 to 100 (0 no effect, 100 complete control)", "outline": "as §2"}, "[16]": {"tested_on": "ryegrass, Italian", "assay": "Test C postemergence", "format": "in vivo, Lolium multiflorum", "details": "10 days, 0 to 100 scale (0 no effect, 100 complete control)", "outline": "as §1"}, "[17]": {"tested_on": "kochia", "assay": "Test C postemergence", "format": "in vivo, Bassia scoparia", "details": "10 days, 0 to 100 scale (0 no effect, 100 complete control)", "outline": "as §1"}, "[18]": {"tested_on": "foxtail, giant", "assay": "Test C preemergence", "format": "in vivo, Setaria faberi", "outline": "as §1"}, "[19]": {"tested_on": "soybean", "assay": "Test C postemergence", "format": "in vivo, Glycine max", "details": "10 days, 0 to 100 scale (0 no effect, 100 complete control)", "outline": "as §1"}, "[20]": {"tested_on": "corn", "assay": "Test C postemergence", "format": "in vivo, Zea mays", "details": "10 days, 0 to 100 scale (0 no effect, 100 complete control)", "outline": "as §1"}, "[21]": {"tested_on": "corn", "assay": "Test C preemergence", "format": "in vivo, Zea mays", "outline": "as §1"}, "[22]": {"tested_on": "barnyardgrass", "assay": "Test D flooded paddy test", "format": "in vivo, Echinochloa crus-galli", "details": "250 g ai/ha, applied to paddy water, visual rating after 13 to 14 days, scale 0 to 100 (0 no effect, 100 complete control)", "outline": "as §2"}, "[23]": {"tested_on": "oat, wild", "assay": "Test C postemergence", "format": "in vivo, Avena fatua", "details": "10 days, 0 to 100 scale (0 no effect, 100 complete control)", "outline": "as §1"}, "[24]": {"tested_on": "pigweed, palmer", "assay": "Test C postemergence", "format": "in vivo, Amaranthus palmeri", "details": "10 days, 0 to 100 scale (0 no effect, 100 complete control)", "outline": "as §1"}, "[25]": {"tested_on": "oat, wild", "assay": "Test C preemergence", "format": "in vivo, Avena fatua", "outline": "as §1"}, "[26]": {"tested_on": "foxtail, giant", "assay": "Test C postemergence", "format": "in vivo, Setaria faberi", "details": "10 days, 0 to 100 scale (0 no effect, 100 complete control)", "outline": "as §1"}, "[27]": {"tested_on": "barnyardgrass", "assay": "Test C postemergence", "format": "in vivo, Echinochloa crusgalli", "details": "10 days, 0 to 100 scale (0 no effect, 100 complete control)", "outline": "as §1"}, "[28]": {"tested_on": "kochia", "assay": "Test C preemergence", "format": "in vivo, Bassia scoparia", "outline": "as §1"}, "[29]": {"details": "500 g ai/ha, preemergence, 0 to 100 scale (0 no effect, 100 complete control)"}, "[30]": {"details": "Preemergence, 125 g ai/ha, 0 to 100 scale, 0 no effect, 100 complete control"}}}
{"smiles": "CCc1ncn(-c2cc(C(=O)N3CC(C(F)(F)F)Oc4c(C)cccc43)ccn2)n1", "note": "(stereo not shown) [Compound 318]", "values": [{"measurement": "Blackgrass plant response rating", "setting": "[1]; [29]", "value": 90}, {"measurement": "Plant response rating, Blackgrass", "setting": "[1]; [30]", "value": 80}, {"measurement": "Plant response rating, Galium", "setting": "[2]; 500 g ai/ha, postemergence", "value": 100}, {"measurement": "Plant response rating, Galium", "setting": "[2]; Postemergence, 125 g ai/ha", "value": 100}, {"measurement": "Barnyardgrass plant response rating", "setting": "[3]; [29]", "value": 100}, {"measurement": "Plant response rating, Barnyardgrass", "setting": "[3]; [30]", "value": 90}, {"measurement": "Soybean plant response rating", "setting": "[4]; [29]", "value": 100}, {"measurement": "Plant response rating, Soybean", "setting": "[4]; [30]", "value": 30}, {"measurement": "Wheat plant response rating", "setting": "[5]; [29]", "value": 90}, {"measurement": "Plant response rating, Wheat", "setting": "[5]; [30]", "value": 30}, {"measurement": "Ragweed plant response rating", "setting": "[6]; [29]", "value": 40}, {"measurement": "Plant response rating, Ragweed", "setting": "[6]; [30]", "value": 0}, {"measurement": "Plant response rating, Sedge, Umbrella (Flood)", "setting": "[7]", "value": 45}, {"measurement": "Plant response rating, Rice (Flood)", "setting": "[8]", "value": 15}, {"measurement": "Plant response rating, Wheat", "setting": "[9]; 500 g ai/ha, postemergence", "value": 50}, {"measurement": "Plant response rating, Wheat", "setting": "[9]; Postemergence, 125 g ai/ha", "value": 40}, {"measurement": "Plant response rating, Blackgrass", "setting": "[10]; 500 g ai/ha, postemergence", "value": 90}, {"measurement": "Plant response rating, Blackgrass", "setting": "[10]; Postemergence, 125 g ai/ha", "value": 60}, {"measurement": "Pigweed, Palmer plant response rating", "setting": "[11]; [29]", "value": 90}, {"measurement": "Plant response rating, Pigweed, Palmer", "setting": "[11]; [30]", "value": 50}, {"measurement": "Ryegrass, Italian plant response rating", "setting": "[12]; [29]", "value": 100}, {"measurement": "Plant response rating, Ryegrass, Italian", "setting": "[12]; [30]", "value": 90}, {"measurement": "Plant response rating, Ragweed", "setting": "[13]; 500 g ai/ha, postemergence", "value": 30}, {"measurement": "Plant response rating, Ragweed", "setting": "[13]; Postemergence, 125 g ai/ha", "value": 0}, {"measurement": "Plant response rating, Horseweed", "setting": "[14]; 500 g ai/ha, postemergence", "value": 20}, {"measurement": "Plant response rating, Horseweed", "setting": "[14]; Postemergence, 125 g ai/ha", "value": 0}, {"measurement": "Plant response rating, Ducksalad (Flood)", "setting": "[15]", "value": 10}, {"measurement": "Plant response rating, Ryegrass, Italian", "setting": "[16]; 500 g ai/ha, postemergence", "value": 100}, {"measurement": "Plant response rating, Ryegrass, Italian", "setting": "[16]; Postemergence, 125 g ai/ha", "value": 60}, {"measurement": "Plant response rating, Kochia", "setting": "[17]; 500 g ai/ha, postemergence", "value": 80}, {"measurement": "Plant response rating, Kochia", "setting": "[17]; Postemergence, 125 g ai/ha", "value": 50}, {"measurement": "Foxtail, Giant plant response rating", "setting": "[18]; [29]", "value": 100}, {"measurement": "Plant response rating, Foxtail, Giant", "setting": "[18]; [30]", "value": 100}, {"measurement": "Plant response rating, Soybean", "setting": "[19]; 500 g ai/ha, postemergence", "value": 100}, {"measurement": "Plant response rating, Soybean", "setting": "[19]; Postemergence, 125 g ai/ha", "value": 100}, {"measurement": "Plant response rating, Corn", "setting": "[20]; 500 g ai/ha, postemergence", "value": 80}, {"measurement": "Plant response rating, Corn", "setting": "[20]; Postemergence, 125 g ai/ha", "value": 70}, {"measurement": "Corn plant response rating", "setting": "[21]; [29]", "value": 80}, {"measurement": "Plant response rating, Corn", "setting": "[21]; [30]", "value": 30}, {"measurement": "Plant response rating, Barnyardgrass (Flood)", "setting": "[22]", "value": 45}, {"measurement": "Plant response rating, Oat, Wild", "setting": "[23]; 500 g ai/ha, postemergence", "value": 80}, {"measurement": "Plant response rating, Oat, Wild", "setting": "[23]; Postemergence, 125 g ai/ha", "value": 40}, {"measurement": "Plant response rating, Pigweed, Palmer", "setting": "[24]; 500 g ai/ha, postemergence", "value": 60}, {"measurement": "Plant response rating, Pigweed, Palmer", "setting": "[24]; Postemergence, 125 g ai/ha", "value": 20}, {"measurement": "Oat, Wild plant response rating", "setting": "[25]; [29]", "value": 90}, {"measurement": "Plant response rating, Oat, Wild", "setting": "[25]; [30]", "value": 50}, {"measurement": "Plant response rating, Foxtail, Giant", "setting": "[26]; 500 g ai/ha, postemergence", "value": 90}, {"measurement": "Plant response rating, Foxtail, Giant", "setting": "[26]; Postemergence, 125 g ai/ha", "value": 90}, {"measurement": "Plant response rating, Barnyardgrass", "setting": "[27]; 500 g ai/ha, postemergence", "value": 70}, {"measurement": "Plant response rating, Barnyardgrass", "setting": "[27]; Postemergence, 125 g ai/ha", "value": 50}, {"measurement": "Kochia plant response rating", "setting": "[28]; [29]", "value": 90}, {"measurement": "Plant response rating, Kochia", "setting": "[28]; [30]", "value": 70}]}
